Laboratory results from patent US8022249B2, “Compounds for the treatment of metabolic disorders” (Wellstat Therapeutics Corporation, priority 2005, dated 2011).

Experiments:
ob/ob mice [1] = experiment: Serum ALT and AST in ob/ob mice (animal model for NASH); type: in vivo; conditions: for ALT ± SD / AST ± SD: male ob/ob mice, 100 mg/kg daily oral doses for two weeks, serum
Experimental: (§1) Male ob/ob mice were divided into four treatment groups comprising six mice each, and given daily oral doses of Vehicle (1% hydroxypropylmethylcellulose) or 100 mg/kg Compound CT, Compound CV, or Compound BI (a positive control) for two weeks. Blood samples were collected form the retro-orbital sinus and processed for serum chemistry measurements.
Obese ob/ob mice develop chronic inflammatory fatty liver disease and are considered to be an animal model for nonalcoholic steatohepatitis (NASH), a condition which can lead toward progressive cirrhosis and liver dysfunction. In NASH, fat accumulation increases the susceptibility of the liver to inflammatory injury. One characteristic sign of NASH in patients is, in the absence of viral infection or alcoholism, elevated levels in serum of enzymes that are released from damaged hepatocytes, e.g. alanine aminotransferase (ALT) and Aspartate-aminotransferase (AST). These enzymes are elevated in ob/ob mice as a consequence of fatty liver and secondary inflammation. In Table 3, ALT and AST in serum samples from mice treated with Compound CT, Compound CV, and Compound BI are shown, as are enzyme levels in serum from control ob/ob mice treated only with vehicle. Treatment with Compound CT, Compound CV, and Compound BI reduced serum ALT and AST versus vehicle-treated ob/ob mice.

ob/ob mice [2] = experiment: Serum glucose, triglycerides, free fatty acids and insulin in ob/ob mice; type: in vivo; conditions: male ob/ob mice, 100 mg/kg daily oral doses for two weeks
Experimental: Ob/ob mice have a defect in the gene for leptin, a protein involved in appetite regulation and energy metabolism, and are hyperphagic, obese, and insulin resistant. They develop hyperglycemia and fatty liver.
as §1

| SMILES | ALT ± SD (ob/ob mice [1]) | AST ± SD (ob/ob mice [1]) | serum ALT and AST versus vehicle-treated ob/ob mice (in words) (ob/ob mice [1]) | Free Fatty Acids ± SD (ob/ob mice [2]) | Glucose ± SD (ob/ob mice [2]) | Insulin ± SD (ob/ob mice [2]) | Triglycerides ± SD (ob/ob mice [2]) |
| --- | --- | --- | --- | --- | --- | --- | --- |
| Cc1cccc(C)c1COc1cccc(C(=O)CCC(=O)O)c1 [Compound BI, 4-(3-(2,6-Dimethylbenzyloxy)phenyl)-4-oxobutyric acid, reference compound] | 330 ± 40 U/L | 217 ± 24 U/L | reduced | 874 ± 74 µM | 180 ± 19 mg/dL | 1.1 ± 0.2 ng/mL | 58 ± 2 mg/dL |
| Cc1cccc(C)c1COc1cccc(CC(=O)NO)c1 [Compound CT, N-Hydroxy-2-[3-(2,6-dimethylbenzyloxy)phenyl]acetamide] | 230 ± 59 U/L | 170 ± 23 U/L | reduced | 894 ± 55 µM | 131 ± 21 mg/dL | 3.1 ± 0.9 ng/mL | 68 ± 6 mg/dL |
| Cc1cccc(C)c1COc1cccc(CC(=O)NCCO)c1 [Compound CV, N-(2-Hydroxyethyl)-2-[3-(2,6-dimethylbenzyloxy)phenyl]acetamide] | 484 ± 65 U/L | 318 ± 48 U/L | reduced | 1070 ± 60 µM | 164 ± 10 mg/dL | 5.0 ± 0.7 ng/mL | 73 ± 5 mg/dL |
